One data set deals with mouse macrophages. Kind of data set: eGFP mRNA transfection of mouse macrophages with or without mannose-dendrimer coat. In kind it is cell-based. The protocol:
J774.2 cells were subcultured in DMEM supplemented with 2 mM glutamax and 10% heat-inactivated FBS (complete media). Twice a week (at about 70-80% confluency; every 3-4 days), cells were scrapped and collected into Falcon tubes, and pelleted at 400 g for 5 minutes. The cells were resuspended in complete media, counted and seeded into 10 cm dishes at a density of 1.7-2.5E+4 cells/cm^2. For M2 polarisation, the cells were treated with complete media supplemented with 20 ng/ml recombinant murine IL-4 and 20 ng/ml recombinant murine IL-13 (activation media) over a 48 hr period. After 24 hrs in IL-4 and IL-13 containing medium, the cells scrapped and collected as described above. The cells were seeded into 24-well plates at a density of 1.2E+5 cells/well in 0.5mls/well complete media containing 20 ng/ml IL-4 and IL-13.
The media overlaying the polarised J774.2 cells was aspirated and exchanged with 480 ul/well activation media. 120 ul/well of each test condition (total volume was 600 ul/well) was added (test conditions were prepared in 25 mM HEPES solution). Control conditions were prepared consisting of neat 25 mM HEPES and an mRNA control. Between addition of each test condition the plate was shaken back and forth to ensure mixing. The plate was placed into the incubator overnight.
Staining and fixation for both human and mouse-derived macrophages was carried out as follows. After 24 hrs the media overlaying each test condition was transferred to corresponding 1.5 ml Eppendorf tubes (in order to conserve cells that may have died during transfection). Cells were then washed with 300 ul/well PBS which was transferred to the corresponding tubes. 500 ul/well 5 mM EDTA was added to each well and the plate(s) transferred to the 37° C. incubator for 5-10 minutes until the cells started to detach. Cells were then transferred from the plate to the corresponding 1.5 ml tubes. Cells were pelleted down at 300 g for 5 minutes and resuspended in 100 ul/sample fixable Live/Dead Aqua stain. ArC beads were stained with 3 ul neat Live/Dead Aqua for compensation. These cells were stained on ice for 30 minutes. Following this, the tubes were spun down at 300 g for 5 minutes. The supernatant was discarded, and the cells were resuspended in 500 ul/sample PBS. Negative ArC beads were added to the compensation control. GFP compensation beads were dispensed into separate tube as the GFP compensation control. The samples were spun down at 300 g for 5 minutes. Samples were then resuspended in 100 ul/sample of Reagent A from the Invitrogen Fix/Perm kit and left at room temperature for 15 minutes. The samples were spun down at 400 g for 5 minutes and the supernatant was disposed. The samples were once again washed with PBS and spun down at 300 g for 5 minutes. The cells were finally resuspended in 400 ul/sample FACS buffer (PBS+2 mM EDTA+0.5% w/v BSA) for flow analysis. Samples were stored in the fridge prior to flow analysis and run within 24 hrs of fixation.
12 μl of a nanoparticle formulation was aliquoted into a sterile 0.5 ml polypropylene tube. 4 μl of a 0.3 mg/ml, 0.6 mg/ml or 1.8 mg/ml solution of (Ac-EEEE)2[…][(S-S)-α-D-Thiomannose] (for a mRNA:coating mass ratio of 1:0.5, 1:1 or 1:3, respectively) was mixed by rapidly pipetting up and down 10-15 times, and allowed to incubate for 5 minutes.
Macrophages, and in particular M2-phenotype macrophages, are known to have enriched surface expression of the receptor CD206, the ligand for which is mannose.

A short description of data set [1]: Dynamic light scattering: hydrodynamic size and polydispersity index (PDI) of nanoparticles. In kind it is physicochemical. The procedure, abridged:
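Hydrodynamic size measured by DLS (Stokes-Einstein), PDI from cumulants fit per ISO 13321/22412. Samples diluted 16× in 25 mM HEPES, water as dispersant, 25° C; PDI measured on dendrimer:nucleic acid 8:1 nanoparticles.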

[2] abbreviates: GSCG1,2-RHL N:P=0.6:1, DOTMA:DOPE, coated with GSGGSGGSCG1-EEEE, with/without CpG (mRNA:CpG w/w 9:1).
The mark [3] stands for this setting: GSCG1,2-RHL and DOTMA:DOPE nanoparticles, 150 ug/mL mRNA, 40× dilution in 25 mM HEPES buffer.
Where [4] appears, read: mRNA, N:P 0.6:1, DOTMA:DOPE w/w 10:1, with or without 3 equivalents G1-EEEE with mannose coating.

As to (RHL)4(KRHL)2KGSC-NH2 [GSCG1,2-RHL], the “transfection efficiency with mannose-conjugated dendrimer coat versus uncoated” value in the data set with mouse macrophages (NP=0.6:1, lipid:mRNA w/w 10:1, coat 3:1 (3 eq) coating:mRNA, FIG. 7) is reported as “further increase the transfection efficiency”. The transfection efficiency in the data set with mouse macrophages (NP=0.6:1, lipid:mRNA w/w 10:1, uncoated, FIG. 7) was > 70%; with mouse macrophages (NP=8:1, lipid:mRNA w/w 2.5:1, coated with (Ac-EEEE)2KGSGGSGGSC[(S-S)-α-D-Thiomannose] at 1:1 (1 eq) coating:mRNA, FIG. 4), ~25%; in the data set on mouse macrophages (NP=8:1, lipid:mRNA w/w 2.5:1, uncoated, FIG. 4) it was 2-3%; in the data set with mouse macrophages (NP=8:1, lipid:mRNA w/w 5:1, dendrimer-mannose coat 0.5:1 (0.5 eq) coating:mRNA, FIG. 5), ~75%; in the data set with mouse macrophages (NP=8:1, lipid:mRNA w/w 5:1, uncoated, lipid-only nanoparticles as comparator, FIG. 5) it was ~60%. Further, the transfection rate in the data set with mouse macrophages (NP=8:1, DOTMA/DOPE:mRNA w/w 10:1, uncoated, FIG. 6) was ~60%. This substance returned a Hydrodynamic size in data set [1] (setting [2]) of 174 nm. Further, the PDI came to 0.17 in data set [1] (setting [2]) and 0.1776 in data set [1] (setting [4]). Further, the “DLS measurement, Pdl” value in data set [1] (setting [3]) is listed as 0.13. The “DLS measurement, size” value in data set [1] (setting [3]) turned out to be 184 nm. Besides, the size in data set [1] (setting [4]) is on record as 149.5 nm.

(Values after patent US20260014278A1, “HYBRID PEPTIDE DENDRIMER SYSTEMS AND EXTRAHEPATIC DELIVERY” (NUNTIUS THERAPEUTICS LIMITED, priority 2022, published 2026).)
